Data from patent US8269026B2, “Lupane derivatives useful for treating HIV” (priority 2008, dated 2012).
Like-named read-outs stand apart in the source and are kept apart here.

Test system: HIV-1 (HIVIIIB) replication in MT2 cell line
Experiment: HIV-1 replication in MT2 cell line with and without 30% human serum (viral RT activity in supernatant)
Type: cell-based
Details: Human immunodeficiency virus 1, MT2 cells, average IC50 if tested more than once
Method: HIV-1 Replication in MT2 cell line with and without 30% human serum: The cells are infected at a Multiciplicity of Infection (MOI) of 0.5 for 3 h and then washed twice with complete media to remove residual virus. Cells are then resuspended at 0.5×10^6/ml in complete medium (RPMI, 10% FBS, 1% sodium pyruvate), and seeded into 96-well plates (6.25×10^4/well). The cells are cultured in the presence or absence of various concentrations of test compounds in serial dilutions for 3 days at 37° C. The test compounds are serially diluted in complete medium supplemented or not with 30% human serum. After 3 days, 100 μL of cultured medium with cells are replaced with 120 μL of freshly diluted test compounds in complete medium containing or not 30% Human serum. The level of HIV-1 replication is determined at days 5 after infection by the presence of viral RT activity in harvested supernatant fluid. The IC50 and IC90 values for the virus replication are determined by using GRAPHPAD PRISM software.
The IC50 of the compounds tested in accordance with the HIV replication activity assay MT2 (HIVIIIB) are represented in Table 1.

[1] = with 30% human serum, read-out: MT2 (HIVIIIB) with HS 30% IC50 range
[2] = without human serum, read-out: MT2 (HIVIIIB) IC50 range

SMILES | IC50 [1] [nM] | IC50 [2] [nM]
CC(C)C1=C2[C@H]3CC[C@@H]4[C@@]5(C)CC[C@H](OC(=O)CC(C)(C)C(=O)O)C(C)(C)[C@@H]5CC[C@@]4(C)[C@]3(C)CC[C@@]2(NC(=O)Nc2ccccc2)CC1=O [17-3, 3β-O-(3′,3′-Dimethylsuccinyl)-17β-[N′-(phenyl)ureido]-21-oxolup-18-ene] | < 199 | < 199
CC(C)C1=C2C3CCC4[C@@]5(C)CC[C@H](OC(=O)CC(C)(C)C(=O)O)C(C)(C)C5CC[C@@]4(C)[C@]3(C)CC[C@@]2(NC(=O)OC2CCN(C)CC2)CC1=O (stereo partly drawn) [20-17, 3β-O-(3′,3′-Dimethylsuccinyl)-17β-(1-methylpiperidine-4-oxycarbonylamino)-21-oxolup-18-ene] | < 199 | –
CC(C)C1=C2[C@H]3CC[C@@H]4[C@@]5(C)CC[C@H](OC(=O)CC(C)(C)C(=O)O)C(C)(C)C5CC[C@@]4(C)[C@]3(C)CC[C@@]2(NC(=O)NC[C@@H]2CCCN2)CC1=O (stereo partly drawn) [17-38, 3β-O-(3′,3′-Dimethylsuccinyl)-17β-(3-(S)-1-pyrrolidin-2-ylmethyl-ureido)-21-oxolup-18-ene] | < 199 | –
CCNC(=O)N[C@@]12CC[C@]3(C)[C@H](CC[C@@H]4[C@@]5(C)CC[C@H](OC(=O)CC(C)(C)C(=O)O)C(C)(C)[C@@H]5CC[C@]43C)C1=C(C(C)C)C(=O)C2 [17-2, 3β-O-(3′,3′-Dimethylsuccinyl)-17β-[N′-(ethyl)ureido]-21-oxolup-18-ene] | < 199 | < 199
Cc1cnc(C(=O)N[C@@]23CC[C@]4(C)C(CCC5[C@@]6(C)CC[C@H](OC(=O)CC(C)(C)C(=O)O)C(C)(C)C6CC[C@]54C)C2=C(C(C)C)C(=O)C3)o1 (stereo partly drawn) [19-80, 3β-O-(3′,3′-Dimethylsuccinyl)-17β-(5-methyl-[1,3]-oxazole-2-amido)-21-oxolup-18-ene] | < 199 | –
CNC1CCN(C(=O)N[C@@]23CC[C@]4(C)C(CCC5[C@@]6(C)CC[C@H](OC(=O)CC(C)(C)C(=O)O)C(C)(C)C6CC[C@]54C)C2=C(C(C)C)C(=O)C3)CC1 (stereo partly drawn) [17-39, 3β-O-(3′,3′-Dimethylsuccinyl)-17β-[(4-methylamino-piperidine-1-carbonyl)-amino]-21-oxolup-18-ene] | 200 to 999 | –
Cc1nnc(C(=O)N[C@@]23CC[C@]4(C)C(CCC5[C@@]6(C)CC[C@H](OC(=O)CC(C)(C)CC(=O)O)C(C)(C)C6CC[C@]54C)C2=C(C(C)C)C(=O)C3)o1 (stereo partly drawn) [19-75, 3β-O-(3′,3′-Dimethylglutaryl)-17β-(5-methyl-[1,3,4]oxadiazole-2-amido)-21-oxolup-18-ene] | < 199 | –
CC(C)C1=C2C3CCC4[C@@]5(C)CC[C@H](OC(=O)CC(C)(C)C(=O)O)C(C)(C)C5CC[C@@]4(C)[C@]3(C)CC[C@@]2(NC(=O)OCC2CC2)CC1=O (stereo partly drawn) [20-3, 3β-O-(3′,3′-Dimethylsuccinyl)-17β-cyclopropylmethoxycarbonylamino-21-oxolup-18-ene] | < 199 | < 199
CC(C)C1=C2[C@H]3CC[C@@H]4[C@@]5(C)CC[C@H](OC(=O)CC(C)(C)C(=O)O)C(C)(C)[C@@H]5CC[C@@]4(C)[C@]3(C)CC[C@@]2(NC(=O)[C@@H]2CCCCN2C)CC1=O [19-65, 3β-O-(3′,3′-Dimethylsuccinyl)-17β-((S)-1-methylpiperidine-2-amido)-21-oxolup-18-ene] | < 199 | –
CC(C)C1=C2C3CCC4[C@@]5(C)CC[C@H](OC(=O)CC(C)(C)C(=O)O)C(C)(C)C5CC[C@@]4(C)[C@]3(C)CC[C@@]2(NC(=O)OCCN2CCCC2=O)CC1=O (stereo partly drawn) [20-24, 3β-O-(3′,3′-Dimethylsuccinyl)-17β-(2-(2-oxo-pyrrolidin)-1-ethoxycarbonylamino)-21-oxolup-18-ene] | < 199 | –
CC(C)C1=C2C3CCC4[C@@]5(C)CC[C@H](OC(=O)CC(C)(C)C(=O)O)C(C)(C)C5CC[C@@]4(C)[C@]3(C)CC[C@@]2(NC(=O)OC2CCS(=O)(=O)CC2)CC1=O (stereo partly drawn) [20-15, 3β-O-(3′,3′-Dimethylsuccinyl)-17β-(1,1-dioxo-tetrahydro-thiopyran-4-oxycarbonylamino)-21-oxolup-18-ene] | < 199 | –
CC(C)C1=C2C3CCC4[C@@]5(C)CC[C@H](OC(=O)CC(C)(C)C(=O)O)C(C)(C)C5CC[C@@]4(C)[C@]3(C)CC[C@@]2(NC(=O)N[C@@H](C)c2ccccc2)CC1=O (stereo partly drawn) [17-61, 3β-O-(3′,3′-Dimethylsuccinyl)-17β-[N′-((S)-1-phenyl-ethyl)-ureido]-21-oxolup-18-ene] | < 199 | –
CC(C)C1=C2C3CCC4[C@@]5(C)CC[C@H](OC(=O)CC(C)(C)C(=O)O)C(C)(C)C5CC[C@@]4(C)[C@]3(C)CC[C@@]2(NC(=O)NC2(c3ccccc3)CC2)CC1=O (stereo partly drawn) [17-66, 3β-O-(3′,3′-Dimethylsuccinyl)-17β-[N′-(1-phenyl-cyclopropyl)-ureido]-21-oxolup-18-ene] | < 199 | –
CC(C)C1=C2C3CCC4[C@@]5(C)CC[C@H](OC(=O)CC(C)(C)C(=O)O)C(C)(C)C5CC[C@@]4(C)[C@]3(C)CC[C@@]2(NC(=O)c2cncs2)CC1=O (stereo partly drawn) [19-28, 3β-O-(3′,3′-Dimethylsuccinyl)-17β-(1,3-thiazole-5-amido)-21-oxolup-18-ene] | < 199 | –
CC(C)C1=C2[C@H]3CC[C@@H]4[C@@]5(C)CC[C@H](OC(=O)CC(C)(C)C(=O)O)C(C)(C)[C@@H]5CC[C@@]4(C)[C@]3(C)CC[C@@]2(NC(=O)N2CCN(C(=O)OC(C)(C)C)CC2)CC1=O [17-14, 3β-O-(3′,3′-Dimethylsuccinyl)-17β-[(4-tert-butyloxycarbonyl-piperazine-1-carbonyl)-amino]-21-oxolup-18-ene] | < 199 | < 199
CC(C)C1=C2C3CCC4[C@@]5(C)CC[C@H](OC(=O)CC(C)(C)C(=O)O)C(C)(C)C5CC[C@@]4(C)[C@]3(C)CC[C@@]2(NC(=O)Cn2ccnc2)CC1=O (stereo partly drawn) [19-60, 3β-O-(3′,3′-Dimethylsuccinyl)-17β-(1-imidazole-acetamido)-21-oxolup-18-ene] | < 199 | –
CC(C)C1=C2[C@H]3CC[C@@H]4[C@@]5(C)CC[C@H](OC(=O)CC(C)(C)C(=O)O)C(C)(C)[C@@H]5CC[C@@]4(C)[C@]3(C)CC[C@@]2(NC(=O)c2ccncc2)CC1=O [19-14, 3β-O-(3′,3′-Dimethylsuccinyl)-17β-(pyridin4-yl)amido-21-oxolup-18-ene] | < 199 | –
CC(C)C1=C2[C@H]3CC[C@@H]4[C@@]5(C)CC[C@H](OC(=O)CC(C)(C)C(=O)O)C(C)(C)C5CC[C@@]4(C)[C@]3(C)CC[C@@]2(NC(=O)Nc2cnn(C)c2)CC1=O (stereo partly drawn) [17-37, 3β-O-(3′,3′-Dimethylsuccinyl)-17β-[N′-(1-methyl-1H-pyrazol-4-yl)ureido]-21-oxolup-18-ene] | < 199 | –
CC(C)C1=C2C3CCC4[C@@]5(C)CC[C@H](OC(=O)CC(C)(C)C(=O)O)C(C)(C)C5CC[C@@]4(C)[C@]3(C)CC[C@@]2(NC(=O)OC[C@@H]2CCCN2C)CC1=O (stereo partly drawn) [20-20, 3β-O-(3′,3′-Dimethylsuccinyl)-17β-((S)1-methylpyrrolidine-2-methoxycarbonylamino)-21-oxolup-18-ene] | < 199 | –
CC(C)C1=C2C3CCC4[C@@]5(C)CC[C@H](OC(=O)CC(C)(C)C(=O)O)C(C)(C)C5CC[C@@]4(C)[C@]3(C)CC[C@@]2(NC(=O)NC2(c3ccccn3)CC2)CC1=O (stereo partly drawn) [17-69, 3β-O-(3′,3′-Dimethylsuccinyl)-17β-[N′-(1-pyridin-2-yl-cyclopropyl)-ureido]-21-oxolup-18-ene] | < 199 | –
